Source: US8785452B2, “Anti-infective compounds” (priority 2008, dated 2014)
Like-named read-outs stand apart in the source and are kept apart here.

What was measured:
[1] = tested on: Raw264.7 cells; experiment: Cell number (CellNb) from image analysis of the phenotypic cell-based assay
[2] = tested on: M. tuberculosis H37Rv-GFP; experiment: microbe, parasite or virus in culture; type: cell-based; details: Mycobacterium tuberculosis; for inhibition at 0.2 µM: read-out: QUM Confirm % Inhibition 0.2 uM; for inhibition at 2 µM: read-out: QUM Confirm % Inhibition 2 uM; for inhibition at 20 µM: read-out: QUM Confirm % Inhibition 20 uM
[3] = tested on: M. tuberculosis H37Rv-GFP; experiment: microbe, parasite or virus in culture; type: cell-based, Mycobacterium tuberculosis; details: Mycobacterium tuberculosis, H37RV, Macrophage; for inhibition at 0.2 µM: read-out: QIM Confirm % Inhibition 0.2 uM; for inhibition at 2 µM: read-out: QIM Confirm % Inhibition 2 uM
[4] = read-out: Primary QIM % Inhibition
[5] = read-out: QIM Confirm % Inhibition 20 uM
[6] = confirmation, 0.2 uM, intracellular
[7] = confirmation, 2 uM, intracellular
[8] = confirmation, 20 uM, read-out: QIM Confirm % Inhibition 20 uM
[9] = primary screen, 20 μM, read-out: Primary QIM % Inhibition

SMILES | Primary QIM CellNb [1] | QIM Confirm CellNb 0.2 uM [1] | QIM Confirm CellNb 2 uM [1] | QIM Confirm CellNb 20 uM [1] | inhibition at 0.2 µM [2] | inhibition at 2 µM [2] | inhibition at 20 µM [2] | inhibition at 20 µM [3, 4] | inhibition at 0.2 µM [3] | inhibition at 2 µM [3] | inhibition at 20 µM [3, 5] | QIM Confirm CellNb 0.2 uM ([1]; confirmation, 0.2 uM) | QIM Confirm CellNb 2 uM ([1]; confirmation, 2 uM) | QIM Confirm CellNb 20 uM ([1]; confirmation, 20 uM) | Primary QIM CellNb ([1]; primary screen, 20 μM) | inhibition at 0.2 µM [3, 6] | inhibition at 2 µM [3, 7] | inhibition at 20 µM [3, 8] | inhibition at 20 µM [3, 9]
N#CC(C#N)=NNc1ccc(I)cc1 [IPK 000 007 31] | 61.3 | 393.1 | 308.8 | 166.5 | 41% | 33% | 80.8% | -28.2% | 45.7% | 14.7% | 25.8% | – | – | – | – | – | – | – | –
O=C(N/N=C\c1ccc(Cl)s1)c1ccncc1 [IPK 000 009 42] | – | – | – | – | 28.8% | 50.3% | 100% | – | – | – | – | 326.3 | 473.5 | 255.0 | 376.5 | 21.3% | 92.3% | 97.9% | 93.1%
Cc1nn(-c2ccccc2)c(Cl)c1/C=N/NC(=O)c1ccccn1 [IPK 000 001 90] | – | – | – | – | 34.6% | 29.4% | 42.3% | – | – | – | – | 190.0 | 173.6 | 317.6 | 435.5 | 12.7% | 13.2% | 96.5% | 91.9%
CCc1nnc(NS(=O)(=O)c2ccc(N)cc2)s1 [IPK 000 035 58] | – | – | – | – | 45.1% | 46.4% | 65.3% | – | – | – | – | 292.3 | 330.0 | 279.9 | 104.0 | 5.1% | 34.4% | 2.8% | -51.3%
CC1=NN(C(=O)c2ccncc2)C(O)(C(F)(F)F)C1 (stereo not drawn) [IPK 000 009 78] | – | – | – | – | 30% | 61.1% | 100% | – | – | – | – | 325.5 | 414.4 | 376.1 | 454.5 | 17% | 50.2% | 88.6% | 103%
O=C(N/N=C/c1cc(Br)c(Br)o1)c1ccncc1 [IPK 000 009 41] | – | – | – | – | 28.3% | 59.6% | 99.4% | – | – | – | – | 257.8 | 488.3 | 446.5 | 345.8 | 19.6% | 92.8% | 99.6% | 92.9%
CCOC(=O)c1c(CSc2ccccc2)n(Cc2ccccc2)c2ccc(O)c(CN(C)C)c12 [IPK 000 016 05] | 192.0 | 206.8 | 148.9 | 282.0 | 36.6% | 42.5% | 70% | 67.9% | -2.2% | 0.8% | 43.4% | – | – | – | – | – | – | – | –
O=[N+]([O-])c1ccc(/C=N/c2ccccc2O)cc1 [IPK 000 040 14] | – | – | – | – | 38.7% | 46.8% | 68.4% | – | – | – | – | 321.4 | 262.3 | 330.0 | 95.5 | 20.4% | 15.6% | 18.1% | -38.6%
C/C(=N\NOCc1cc([N+](=O)[O-])cc([N+](=O)[O-])c1)c1ccccc1 [IPK 000 035 56] | – | – | – | – | 41.5% | 39.6% | 65.6% | – | – | – | – | 247.1 | 313.1 | 524.3 | 266.0 | 9.1% | 18.8% | 89% | 83.3%
COc1ccc(OCCNC(=O)c2cc([N+](=O)[O-])cc([N+](=O)[O-])c2)cc1 [IPK 000 028 35] | 315.3 | 489.8 | 478.6 | 308.9 | 94% | 98.1% | 48.3% | 94.5% | 64.5% | 102% | 17.8% | – | – | – | – | – | – | – | –
Clc1ccc(Nc2nc3nonc3nc2Nc2ccc(Cl)cc2)cc1 [IPK 000 003 90] | – | – | – | – | 44% | 68.8% | 72.7% | – | – | – | – | 142.3 | 75.6 | 133.4 | 78.0 | 2.2% | 43.2% | 67.9% | 15.7%
O=C(Nc1ccc(Oc2ccccc2)cc1)C1CCCO1 (stereo not drawn) [IPK 000 033 16] | – | – | – | – | 34.1% | 42% | 61.3% | – | – | – | – | 296.1 | 573.9 | 303.9 | 283.0 | 5% | 69.6% | 92.3% | 81.9%
O=C(N/N=C/c1ccco1)c1ccncc1 [IPK 000 013 67] | 358.0 | 452.5 | 545.1 | 457.3 | 49.4% | 90.2% | 69.7% | 98.7% | 84.1% | 102% | 66.7% | – | – | – | – | – | – | – | –
O=C(CSc1cccs1)Nc1nccs1 [IPK 000 002 87] | – | – | – | – | 45.9% | 36.1% | 36.4% | – | – | – | – | 315.9 | 246.1 | 412.9 | 350.3 | 11.4% | -1.3% | 66% | 65.9%
Fc1ccc(Nc2nc3nonc3nc2Nc2ccc(F)cc2)cc1 [IPK 000 003 91] | – | – | – | – | 46.6% | 41.4% | 76.7% | – | – | – | – | 220.9 | 148.9 | 128.8 | 63.0 | 2.9% | 36.8% | 76.4% | 31.6%
